Assay results from ChEMBL document CHEMBL1275411, “Efficacy of SPK-843, a novel polyene antifungal, in comparison with amphotericin B, liposomal amphotericin B, and micafungin against murine pulmonary aspergillosis” (Antimicrob Agents Chemother, 2008).
In brackets after ≈: the same amount, converted by molar mass. Each block holds one compound with its values, some of them ahead of it. Activity calls are given as the source filed them. The calls are words filed in the database; no cut-off is given here. *1 amine or outer side, *2 acyl side, *3 side chain or, on linkers, in order; H or OH if unused. Where a SMILES comes first, the peptide text is derived from it. Bridges are numbered along the chain shown (N, C = ends). [ ]: non-standard residue; d: D form. The star is where a group is joined. hTyr(3S-OH,4S-OH,3'-OSO3H) = N[C@H](C(=O)O)[C@H](O)[C@@H](O)c1ccc(O)c(OS(=O)(=O)O)c1; Orn(4R-OH,5R-OH) = O=C([C@H](C[C@@H](O)[C@@H](O)N[*:3])N[*:1])[*:2]; Pro(3S-OH,4S-Me) = C[C@H]1CN[C@H](C(=O)O)[C@H]1O; X1 = CCCCCOc1ccc(-c2cc(-c3ccc(C(=O)*)cc3)no2)cc1; Gln(3R-OH) = NC(=O)C[C@@H](O)[C@H](N)C(=O)O; Hyp = O=C(O)[C@@H]1C[C@@H](O)CN1

Columns and labels:
Mus musculus [1] = test: Toxicity in Aspergillosis infected DBA/2N mouse assessed as kidney tubular cell necrosis and cast formation at 1 mg/kg, iv qd after 5 days; type: organism-based; design: dose 1 mg/kg, route intravenous; details: in vivo, 120 h
Mus musculus [2] = test: Toxicity in Aspergillosis infected DBA/2N mouse assessed as histopathological lesions in kidney at 1 mg/kg, iv qd after 5 days; type: organism-based; design: dose 1 mg/kg, route intravenous; details: in vivo, 120 h
Aspergillus fumigatus [3] = test: Antimicrobial activity against Aspergillus fumigatus MF-13 by broth microdilution method; type: functional
Aspergillus niger [4] = test: Antimicrobial activity against Aspergillus niger TIMM 2814 by broth microdilution method; type: functional
Aspergillus fumigatus [5] = test: Antimicrobial activity against Aspergillus fumigatus conidia infected in DBA/2N mouse assessed as increased survival rate at 2 to 4 mg/kg, iv qd for 5 days; type: functional, organism-based
Mus musculus [6] = test: Toxicity in Aspergillosis infected DBA/2N mouse assessed as histopathological lesions in kidney at 4 mg/kg, iv qd after 5 days; type: organism-based; design: dose 4 mg/kg, route intravenous; details: in vivo, 120 h
Aspergillus fumigatus [7] = test: Antimicrobial activity against Aspergillus fumigatus conidia infected in DBA/2N mouse assessed as increased survival rate at =>[…] mg/kg, iv qd for 5 days; type: functional, organism-based
Aspergillus flavus [8] = test: Antimicrobial activity against Aspergillus flavus TIMM 0057 by broth microdilution method; type: functional
Aspergillus niger [9] = test: Antimicrobial activity against Aspergillus niger conidia infected in DBA/2N mouse assessed as increased survival rate at =>0.25 mg/kg, iv qd for 5 days; type: functional, organism-based
Aspergillus fumigatus [10] = test: Antimicrobial activity against Aspergillus fumigatus conidia infected in DBA/2N mouse assessed as increased survival rate at 0.25 to 1 mg/kg, iv qd for 5 days; type: functional, organism-based
Aspergillus [11] = test: Antimicrobial activity against Aspergillus infected in DBA/2N mouse at 1 mg/kg, iv qd for 5 days; type: functional, organism-based; design: dose 1 mg/kg
Aspergillus niger [12] = test: Antimicrobial activity against Aspergillus niger conidia infected in DBA/2N mouse assessed as increased survival rate at 2 mg/kg, iv qd for 5 days relative to amphotericin B/L-amphotericin B; type: functional, organism-based; design: dose 2 mg/kg
Aspergillus flavus [13] = test: Antimicrobial activity against Aspergillus flavus conidia infected in iv dosed DBA/2N mouse assessed as increased survival rate measured for 5 days; type: functional, organism-based
Aspergillus flavus [14] = test: Antimicrobial activity against Aspergillus flavus infected in DBA/2N mouse at >1 mg/kg, iv qd for 5 days relative to amphotericin B; type: functional, organism-based
Aspergillus flavus [15] = test: Antimicrobial activity against Aspergillus flavus conidia infected in DBA/2N mouse assessed as increased survival rate at 4 mg/kg, iv qd for 5 days relative to amphotericin B/L-amphotericin B; type: functional, organism-based; design: dose 4 mg/kg
Aspergillus niger [16] = test: Antimicrobial activity against Aspergillus niger infected in DBA/2N mouse at >1 mg/kg, iv qd for 5 days relative to amphotericin B; type: functional, organism-based
Mus musculus [17] = test: Toxicity in DBA/2N mouse infected with Aspergillus at =<1.0 mg/kg, iv qd after 5 days; type: organism-based; details: in vivo, 120 h
Aspergillus [18] = test: Antimicrobial activity against Aspergillus infected in DBA/2N mouse assessed as increased survival rate at >1 mg/kg, iv qd for 5 days relative to amphotericin B; type: functional, organism-based
Mus musculus [19] = test: Toxicity in DBA/2N mouse infected with Aspergillus at >1.0 mg/kg, iv qd for 5 days relative to amphotericin B; type: organism-based; details: in vivo, 120 h
Aspergillus niger [20] = test: Antimicrobial activity against Aspergillus niger conidia infected in iv dosed DBA/2N mouse assessed as increased survival rate measured for 5 days; type: functional, organism-based
Aspergillus flavus [21] = test: Antimicrobial activity against Aspergillus flavus conidia infected in DBA/2N mouse assessed as increased survival rate at =>1 mg/kg, iv qd for 5 days; type: functional, organism-based
Aspergillus fumigatus [22] = test: Antimicrobial activity against Aspergillus fumigatus infected in DBA/2N mouse at >1 mg/kg, iv qd for 5 days relative to amphotericin B; type: functional, organism-based

SMILES: C[C@@H]1[C@H](O)[C@@H](C)/C=C/C=C/C=C/C=C/C=C/C=C/C=C/[C@H](O[C@@H]2O[C@H](C)[C@@H](O)[C@H](N)[C@@H]2O)C[C@@H]2O[C@](O)(C[C@@H](O)C[C@@H](O)[C@H](O)CC[C@@H](O)C[C@@H](O)CC(=O)O[C@H]1C)C[C@H](O)[C@H]2C(=O)O [AMPHOTERICIN B]
Activity (Mus musculus [1]): Toxic
Activity (Mus musculus [2]): Non-toxic
MIC (Aspergillus fumigatus [3]): 0.25 µg/mL (≈ 0.271 µM)
MIC (Aspergillus niger [4]): 0.25 µg/mL (≈ 0.271 µM)
Activity (Aspergillus fumigatus [5]): Active
Activity (Mus musculus [6]): Non-toxic
Activity (Aspergillus fumigatus [7]): Active
MIC (Aspergillus flavus [8]): 0.5 µg/mL (≈ 0.541 µM)

MIC (Aspergillus fumigatus [3]): 0.0156 µg/mL (≈ 0.0123 µM)
SMILES: CCCCCOc1ccc(-c2cc(-c3ccc(C(=O)N[C@H]4C[C@@H](O)[C@@H](O)NC(=O)[C@@H]5[C@@H](O)[C@@H](C)CN5C(=O)[C@H]([C@H](O)CC(N)=O)NC(=O)[C@H]([C@H](O)[C@@H](O)c5ccc(O)c(OS(=O)(=O)O)c5)NC(=O)[C@@H]5C[C@@H](O)CN5C(=O)[C@H]([C@@H](C)O)NC4=O)cc3)no2)cc1 [MICAFUNGIN] (X1-[Orn(4R-OH,5R-OH)]T[Hyp][hTyr(3S-OH,4S-OH,3'-OSO3H)][Gln(3R-OH)][Pro(3S-OH,4S-Me)]; lactam 1-C)

SMILES: CNc1ccc(C(=O)CC(O)CC[C@H](C)C2OC(=O)C[C@H](O)CC(=O)C[C@H](O)C[C@H](O)C[C@H](O)C[C@H](O)C[C@]3(O)C[C@H](O)[C@@H](C(=O)NCCN(C)C)[C@H](C[C@@H](O[C@@H]4O[C@H](C)[C@@H](O)[C@H](NC(=O)CN(C)C)[C@@H]4O)/C=C/C=C/C=C/C=C/C=C/C=C/C=C/C2C)O3)cc1.O=C1O[C@H]([C@@H](O)CO)C(O)=C1O.O=C1O[C@H]([C@@H](O)CO)C(O)=C1O (some centres not stated)
Activity (Aspergillus niger [9]): Active
Activity (Aspergillus fumigatus [10]): Active
Activity (Aspergillus [11]): inactive
Activity (Aspergillus niger [12]): Active
Activity (Aspergillus flavus [13]): Dose-dependent effect
MIC (Aspergillus fumigatus [3]): 0.5 µg/mL
MIC (Aspergillus niger [4]): 0.0625 µg/mL
Activity (Aspergillus flavus [14]): Active
Activity (Aspergillus flavus [15]): Active
Activity (Aspergillus niger [16]): Active
Activity (Mus musculus [17]): Non-toxic
Activity (Aspergillus fumigatus [7]): Active
Activity (Aspergillus [18]): Active
Activity (Mus musculus [19]): Non-toxic
Activity (Aspergillus niger [20]): Dose-dependent effect
Activity (Aspergillus flavus [21]): Active
Activity (Aspergillus fumigatus [22]): Active
MIC (Aspergillus flavus [8]): 0.25 µg/mL
